Experimental data reported in patent publication US20060062863A1, “Compositions for anti-obesity, health-restorative and health-promotional benefits” (priority 2004, published 2006).

Experiment: Food intake and body weight in haloperidol-treated albino rats
Type: in vivo
Conditions: for % change in body weight: day-21 vs initial value; for % change in food intake: during the 21-day period vs initial value
Source text: The results of administration of the Type-I saponins or the total extractives (comprising Type-I to -III compounds) of Chlorophytum arundinaceum on the attendant changes in the food intake and body weight of albino rats (270±20 grams) are given in Table-1. Administration of haloperidol causes obesity as it appreciably increases food intake and induces rapid weight gain. The feeder contained at least three times more pellets than are normally consumed. Food intake and the body weight were assessed for one week in all rats prior to initiation of administration of the test compound(s). Both Type-I saponins and the total extractives annulled the gluttonous craving for food due to haloperidol with appreciable decrease in weight gain, compared to the haloperidol group. […] Sibutramine is used as a recognized anorexic drug.

[1] = haloperidol 20 mg/Kg i.p. once daily for 21 days, alone
[2] = 10 mg/Kg p.o. once daily for 21 days + haloperidol 20 mg/Kg i.p.

Row | SMILES | % change in body weight [1] | % change in food intake [1] | % change in body weight [2] | % change in food intake [2]
1 | O=C(CCCN1CCC(O)(c2ccc(Cl)cc2)CC1)c1ccc(F)cc1 [Haloperidol] | +35.13% | +45.32% |  | 
2 | CC(C)CC(N(C)C)C1(c2ccc(Cl)cc2)CCC1 (stereo not shown) [Sibutramine] |  |  | +0.28% | −0.37%
